In assay [1] the test system is influenza A virus (A/PR/8/34). The assay can be described thus: MDCK cytopathic effect (CPE) cell protection assay, ATP detection. It counts as cell-based. Particulars: Influenza A virus, PR/8, MDCK, 72 h, Table 1; MDCK cells, A/PR/8/34, 72 hours, 50% cell protection, mean all; class symbol; read-out: MDCK IC50.
Assay [2] deals with influenza A virus (A/PR/8/34). The assay can be described thus: microbe, parasite or virus in culture. Format: cell-based. Particulars: Influenza A virus, PR/8, Table 1, mean all, class symbol; for EC99: read-out: bDNA EC99; for EC50: viral RNA 50% of control wells, read-out: bDNA EC50.

SMILES strings stand for the structures.

Turning to `CNS(=O)(=O)C[C@@H](Nc1nc(-c2c[nH]c3ncc(F)cc23)ncc1F)C(C)(C)C` [Compound 19, (S)-2-(5-fluoro-2-(5-fluoro-1H-pyrrolo[2,3-b]pyridin-3-yl)pyrimidin-4ylamino)-N,3,3-trimethylbutane-1-sulfonamide], in assay [1], the IC50 was < 300 nM. In assay [2], the EC99 is < 0.3 µM and the EC50 was < 300 nM.
As for `CC(C)(C)[C@@H](CCC(=O)O)Nc1nc(-c2c[nH]c3ncc(F)cc23)ncc1F` [Compound 20, (R)-4-((5-fluoro-2-(5-fluoro-1H-pyrrolo[2,3-b]pyridin-3-yl)pyrimidin-4-yl)amino)-5,5-dimethylhexanoic acid], the IC50 in assay [1] is < 300 nM. In assay [2], the EC99 was < 0.3 µM and the concentration giving a half-maximal response (EC50) is < 300 nM.
`CC(C)(C)[C@@H](CS(=O)(=O)NC1CC1)Nc1nc(-c2c[nH]c3ncc(F)cc23)ncc1F` [Compound 21, (S)—N-Cyclopropyl-2-(5-fluoro-2-(5-fluoro-1H-pyrrolo[2,3-b]pyridin-3-yl)pyrimidin-4-ylamino)-3,3-dimethylbutane-1-sulfonamide]: the IC50 in assay [1] is < 300 nM. Further, in assay [2], the concentration for an effect of 99% (EC99) was < 0.3 µM and the EC50 was < 300 nM.
As to `CC(C)(C)[C@@H](CS(N)(=O)=O)Nc1nc(-c2c[nH]c3ncc(F)cc23)ncc1F` [Compound 22, (S)-2-(5-fluoro-2-(5-fluoro-1H-pyrrolo[2,3-b]pyridin-3-yl)pyrimidin-4-ylamino)-3,3-dimethylbutane-1-sulfonamide], the IC50 in assay [1] is < 300 nM. In assay [2], the 99% effect concentration (EC99) lay in the range of 0.3 to 3.3 µM and the EC50 was < 300 nM.
With `CCOC(=O)CC[C@@H](Nc1nc(-c2c[nH]c3ncc(F)cc23)ncc1F)C(C)(C)C` [Compound 23, (R)-ethyl 4-((5-fluoro-2-(5-fluoro-1H-pyrrolo[2,3-b]pyridin-3-yl)pyrimidin-4-yl)amino)-5,5-dimethylhexanoate], in assay [1], the concentration for half-maximal inhibition (IC50) was 300 to 3300 nM. For the same compound, in assay [2], the EC99 is > 3.3 µM and the EC50 was 300 to 3300 nM.
As for `CC(C)(C)[C@@H](CO)Nc1nc(-c2c[nH]c3ncc(F)cc23)c(C#N)cc1F` [Compound 24, (S)-5-fluoro-2-(5-fluoro-1H-pyrrolo[2,3-b]pyridin-3-yl)-6-((1-hydroxy-3,3-dimethylbutan-2-yl)amino)nicotinonitrile], the IC50 in assay [1] is < 300 nM. Moreover, in assay [2], the EC99 is < 0.3 µM and the EC50 was < 300 nM.
In the case of `CC(C)(C)[C@@H](CS(=O)(=O)O)Nc1nc(-c2c[nH]c3ncc(F)cc23)c(C#N)cc1F` [Compound 25, (S)-2-(5-cyano-3-fluoro-6-(5-fluoro-1H-pyrrolo[2,3-b]pyridin-3-yl)pyridin-2-ylamino)-3,3-dimethylbutane-1-sulfonic acid], the half-inhibitory concentration (IC50) in assay [1] was < 300 nM. Further, in assay [2], the EC99 is < 0.3 µM and the EC50 is < 300 nM.
With `CC(C)(C)[C@@H](CO)Nc1nc(-c2c[nH]c3ncc(F)cc23)ncc1F` [Compound 32, (S)-2-(5-fluoro-2-(5-fluoro-1H-pyrrolo[2,3-b]pyridin-3-yl)pyrimidin-4-ylamino)-3,3-dimethylbutane-1-ol], the IC50 in assay [1] was < 300 nM. For the same compound, in assay [2], the EC99 was < 0.3 µM and the EC50 is < 300 nM.
In the case of `CCNS(=O)(=O)C[C@@H](Nc1nc(-c2c[nH]c3ncc(F)cc23)ncc1F)C(C)(C)C` [Compound 33, (S)—N-Ethyl-2-(5-fluoro-2-(5-fluoro-1H-pyrrolo[2,3-b]pyridin-3-yl)pyrimidin-4-ylamino)-3,3-dimethylbutane-1-sulfonamide], the IC50 in assay [1] is < 300 nM. In addition, in assay [2], the EC99 was < 0.3 µM and the EC50 was < 300 nM.
Consider `CCCNS(=O)(=O)C[C@@H](Nc1nc(-c2c[nH]c3ncc(F)cc23)ncc1F)C(C)(C)C` [Compound 34, (S)-2-(5-Fluoro-2-(5-fluoro-1H-pyrrolo[2,3-b]pyridin-3-yl)pyrimidin-4-ylamino)-3,3-dimethyl-N-propylbutane-1-sulfonamide], for which, in assay [1], the 50% inhibitory concentration (IC50) is < 300 nM. For the same compound, in assay [2], the EC99 lay in the range of 0.3 to 3.3 µM and the EC50 is < 300 nM.
As for `COCCNS(=O)(=O)C[C@@H](Nc1nc(-c2c[nH]c3ncc(F)cc23)ncc1F)C(C)(C)C` [Compound 35, (S)-2-(5-Fluoro-2-(5-fluoro-1H-pyrrolo[2,3-b]pyridin-3-yl)pyrimidin-4-ylamino)-N-(2-methoxyethyl)-3,3-dimethylbutane-1-sulfonamide], the half-maximal inhibitory concentration (IC50) in assay [1] is < 300 nM. Further, in assay [2], the concentration for an effect of 99% (EC99) is 0.3 to 3.3 µM and the EC50 was < 300 nM.
For `CNS(=O)(=O)C[C@H](Nc1nc(-c2c[nH]c3ncc(F)cc23)ncc1F)C(C)(C)C` [Compound 38, (R)-2-((5-fluoro-2-(5-fluoro-1H-pyrrolo[2,3-b]pyridin-3-yl)pyrimidin-4-yl)amino)-N,3,3-trimethylbutane-1-sulfonamide], the half-maximal inhibitory concentration (IC50) in assay [1] was > 3300 nM. In assay [2], the EC99 was > 3.3 µM and the EC50 is > 3300 nM.
In the case of `CC(C)NS(=O)(=O)C[C@@H](Nc1nc(-c2c[nH]c3ncc(F)cc23)ncc1F)C(C)(C)C` [Compound 39], the IC50 in assay [1] is < 300 nM. Besides, in assay [2], the EC99 fell in the range of 0.3 to 3.3 µM and the EC50 was < 300 nM.
Regarding `CC(C)(C)NS(=O)(=O)C[C@@H](Nc1nc(-c2c[nH]c3ncc(F)cc23)ncc1F)C(C)(C)C` [Compound 40], the half-maximal inhibitory concentration (IC50) in assay [1] is < 300 nM. In assay [2], the EC99 was 0.3 to 3.3 µM and the EC50 was < 300 nM.
For the compound `CC1([C@@H](CC(=O)O)Nc2nc(-c3c[nH]c4ncc(F)cc34)c(C#N)cc2F)CCCC1` [Compound 42, (R)-3-(5-cyano-3-fluoro-6-(5-fluoro-1H-pyrrolo[2,3-b]pyridin-3-yl)pyridin-2-ylamino)-3-(1-methylcyclopentyl)propanoic acid], the 50% inhibitory concentration (IC50) in assay [1] was < 300 nM. Further, in assay [2], the EC99 was < 0.3 µM and the EC50 is < 300 nM.
`CC(C)(C)[C@@H](CC(=O)O)Nc1nc(-c2c[nH]c3ncc(C(F)(F)F)cc23)ncc1F` [Compound 43, (R)-3-((5-fluoro-2-(5-(trifluoromethyl)-1H-pyrrolo[2,3-b]pyridin-3-yl)pyrimidin-4-yl)amino)-4,4-dimethylpentanoic acid]: in assay [1], the IC50 is < 300 nM. Moreover, in assay [2], the EC99 is < 0.3 µM and the EC50 is < 300 nM.
Consider `CC(C)(C)[C@@H](CS(C)(=O)=O)Nc1nc(-c2c[nH]c3ncc(F)cc23)ncc1F` [Compound 46, (S)—N-(3,3-dimethyl-1-(methylsulfonyl)butan-2-yl)-5-fluoro-2-(5-fluoro-1H-pyrrolo[2,3-b]pyridin-3-yl)pyrimidin-4-amine], for which, in assay [1], the IC50 is < 300 nM. In assay [2], the EC99 is > 3.3 µM and the EC50 was in the range of 300 to 3300 nM.
Turning to `CC(C)(C)[C@@H](CC(=O)O)Nc1ccnc(-c2c[nH]c3ncc(F)cc23)n1` [Compound 47, (R)-3-((2-(5-fluoro-1H-pyrrolo[2,3-b]pyridin-3-yl)pyrimidin-4-yl)amino)-4,4-dimethylpentanoic acid], the IC50 in assay [1] was < 300 nM. In assay [2], the EC99 lay within 0.3 to 3.3 µM and the EC50 was < 300 nM.
With `CC(C)(C)[C@@H](CC(=O)O)Nc1ccnc(-c2n[nH]c3ncc(F)cc23)n1` [Compound 48, (R)-3-((2-(5-fluoro-1H-pyrazolo[3,4-b]pyridin-3-yl)pyrimidin-4-yl)amino)-4,4-dimethylpentanoic acid], in assay [1], the IC50 is < 300 nM. Further, in assay [2], the EC99 was 0.3 to 3.3 µM and the EC50 is 300 to 3300 nM.

Source of the values: patent US10875855B2 (priority 2011, dated 2020).
